Among the data in a melting point compilation (Tetko et al.; mined from patent text by program, amines drawn as free bases though some values may be those of a salt) are melting point values, retold here.

Molecules are shown by their SMILES.

Take `CS(=O)(=O)Nc1ccc(C=C2c3ccccc3CCc3ccccc32)cc1`: the melting point (in general, the temperature, or range, at which the solid turns liquid) is 211 °C.

`Nc1nc(CCl)cc(OCC(F)(F)F)n1` showed a melting point of 77 to 78 °C. Turning to `CCCCCCCCCCCCCCCCn1c2cc(Br)ccc2c2ccc(Br)cc21`, the melting point was in the range of 85 to 86 °C. `CC(C)Cn1cnc(C#N)c1N` showed a melting point of 186 to 188 °C. Next, `CC1COP(=O)(Cc2ccc(N)cc2)OC1` (configuration not stated): 158 to 159 °C. Compound `CC(=Cc1c(-c2ccccc2)nc2sc(C)nn12)C(=O)O` yielded a melting point of 298 to 300 °C.

As to `CC1CCN(c2ncc(Br)cc2C=O)C1` (configuration not stated), the melting point lay in the range of 72 to 73 °C. `CCCCCNC(=O)CCCO`: the melting point was 41 to 43 °C. In the case of `CCCCOCCOc1ccc(-c2ccc3c(c2)C=C(C(=O)OC)CCN3c2ccccc2)cc1` it was 80 to 82 °C; in that of `COc1ccc(COCc2nnc3n2-c2ccc(Cl)cc2C(c2ccccc2Cl)=NC3)cc1`, 235 to 237 °C. Next, `CNC(=O)CC(C#Cc1ccccc1)c1ccc(OC)c(OC2CCCC2)c1` (racemic): 127 to 131 °C. Next, `Cc1[nH]c(=O)c(C(N)=O)cc1-c1ccc2nccn2c1`: greater than 300 °C; `CCN1C(=O)CCC2(CCC(=O)c3ccccc32)C1=O` (configuration not stated): 85.5 to 89 °C.

`CC(C)(C)[C@H]1CC[C@H](CC2=C(Cl)C(=O)c3ccccc3C2=O)CC1` yielded a melting point of 154 to 156 °C. With `CC(=O)Nc1ccc2c(c1)N(C1CCN(CCc3ccc(F)cc3)CC1)CC2`, the melting point is 148 to 150 °C. In the case of `Cc1cccc(C)c1NC(=O)NCC1(c2ccccc2)CCCC1`, the melting point lay in the range of 201 to 202 °C. Next, `CCOC(=O)c1cc2c(o1)CNCC2(O)c1ccc(C)cc1` (configuration not stated): 194 to 196 °C; `CC(=O)Nc1nc(C)c(S(=O)(=O)NC(C)(C)CO)s1`: 194 °C; `O=C(NCCC(=O)N1CCOCC1)c1ccc(-c2ccc3nnn(Cc4ccc5ncccc5c4)c3n2)cc1F`: 212 to 215 °C. Take `CCN(CC)C(=O)Oc1c2c(ccc3cc(F)ccc32)nn1-c1ccc(F)cc1`: the melting point fell in the range of 159 to 160 °C. Next, `COc1ccc2c(c1)S(=O)(=O)N(CCCN1CCN(c3ncccn3)CC1)C(=O)N2`: 178 °C; `CCn1ncc2c(NCC3CCCCC3)c3cc(OCC(O)CO)ccc3nc21` (configuration not stated): 197 to 199 °C. In the case of `CCCCS(=O)(=O)Nc1cccc(OCc2ccc3ccccc3n2)c1` it was 105 to 106 °C. As for `Cc1ccc(S(=O)(=O)NCCC(C(=O)OC(C)(C)C)C2(CC(C)C)CCN(CCc3ccccc3)C2=O)cc1` (configuration not stated), the melting point lay in the range of 136 to 138 °C. In the case of `Cc1[nH]n(C2CCCCC2)c2nc(-c3ccncc3)nc(=O)c1-2` it was 292 to 293 °C; in that of `CC(=Cc1ccc(F)c(F)c1)C(=O)O`, 122 to 125 °C; in that of `COc1cc2c(cc1O)c(-c1cc3cccnc3n1S(=O)(=O)c1ccc(C)cc1)cn2C`, 211 to 214 °C.

Compound `O=Cc1cc(Cl)cc(C=O)n1` had a melting point of 163 °C. Next, `CCOS(=O)(=O)c1nc2nc(C)cc(Cl)n2n1`: 166 to 169 °C; `Cc1[nH]c(=O)n(CCC(C(=O)NO)N(C)S(=O)(=O)c2ccc(Oc3ccccc3)cc2)c(=O)c1F` (configuration not stated): 196 to 198 °C. Next, `Cc1nn(-c2ccccc2)c(=O)c2c1c1c(Br)cccc1n2C`: 189 to 190 °C.

As to `Cc1c(C)c2c(c(C)c1Br)C(c1ccc(C(C)C)cc1)CO2` (configuration not stated), the melting point lay within 86 to 87 °C. Regarding `CCOC(=O)CC(NCCCNC(C)(C)C)C(=O)O` (configuration not stated), the melting point was in the range of 174 to 175 °C.

For the compound `COC(=O)C[C@@H](CC(=O)C=Cc1c(-c2ccc(F)cc2)c(-c2ccccc2)c(C(=O)Nc2cccc(S(N)(=O)=O)c2)n1C(C)C)O[Si](C)(C)C(C)(C)C`, the melting point is 90 to 91 °C.

The compound `O=C1CCC(N2Cc3c(OCc4cccc(CN5CCN(S(=O)(=O)C(F)(F)F)CC5)c4)cccc3C2=O)C(=O)N1` (configuration not stated) registered a melting point of 150 to 152 °C. `NNc1c(F)cc(F)c(F)c1F`: the melting point was 63 to 65 °C. In turn, `CNC(=O)On1c(C(F)(F)F)nc2nc(Br)c(Cl)c(Br)c21` came in with a melting point of 216 °C. `CNC(=NS(=O)(=O)c1ccc(C(F)(F)F)cc1)N1CC(c2ccccc2)C(c2ccc(Cl)cc2)=N1` (single isomer, unassigned; (-)) gave a melting point of 157 to 160 °C. In the case of `CS(=O)(=O)Nc1ccc(C=CC(=O)N2CCc3c([nH]c4ccccc34)C2c2ccc3c(c2)OCO3)cc1` (configuration not stated) it was 203 °C; in that of `CCOC(=O)c1cc(Oc2ccc3c(C(=O)O)cccc3c2)ncn1`, 211 to 212 °C. Consider `COc1cccc2c3c(c(=O)[nH]c12)CCN3c1ccccc1`, for which the melting point was 75 to 77 °C. In the case of `CSc1c(O[C@H]2CC[C@@H](N3C(=O)c4ccccc4C3=O)CC2)ccc2[nH]ncc12` it was 211 to 212 °C; in that of `O=C(O)c1ccc(-c2nc(-c3cccc(Oc4ccccc4)c3)no2)cc1`, 292 to 293 °C; in that of `N#CN=c1ccccn1Cc1ccccc1`, 139 to 140 °C. Take `CCCc1nc2c(N)nc3cc(Br)ccc3c2n1CCCONC(=O)C(C)C`: the melting point lay in the range of 176 to 178 °C. Take `CCOC(=O)c1cn(C2CC2)c2nc(N3CCN(C(=O)OCC)CC3)c(F)cc2c1=O`: the melting point was 184 to 186 °C. The compound `CCOC(=O)[C@@H]1[C@H](C)OC(=O)[C@@H]1NC(C)=O` registered a melting point of 165 to 167 °C. In the case of `CCCCc1ccc(NC(=O)OCc2ccccc2)c(=O)n1CC(=O)OC` it was 111 to 112 °C; in that of `COC(=O)c1cccc(C=Cc2cccc(C(=O)OC)c2)c1`, 105 to 107 °C. In the case of `C=CC[C@@H](N[S@](=O)C(C)(C)C)c1cc(F)cc(C#N)c1` it was 38 to 40 °C; in that of `CSc1cc2ncnc(Cl)c2s1`, 138 to 140 °C. In the case of `COC(C)CNc1nccc(-c2ccnc(Nc3cccc(F)c3)c2)n1` (configuration not stated) it was 103 to 105 °C. With `COc1ccc(C(C)OC)c(OC)c1C(O)c1cn(C(c2ccccc2)(c2ccccc2)c2ccccc2)cn1` (configuration not stated), the melting point lay in the range of 96 to 99 °C. Next, `C=CCn1cc(Cc2ccc(C(=O)O)cc2OC)c2cc(C=C(C)C(=O)NCCC)ccc21`: 84 to 90 °C. Next, `C=CC[C@H]1C[C@@](OS(C)(=O)=O)(C(=O)OC)C[C@@H](OC(=O)c2ccccc2)[C@@H]1OS(C)(=O)=O`: 154 to 155 °C. In turn, `CN(C)[C@H]1CC[C@H](NC(=O)OC(C)(C)C)C1` registered a melting point of 65 to 67 °C.

With `CCOC(=O)Cc1c(C(=O)OCC)c(C)c(C(=O)c2ccc(C)cc2)n1C`, the melting point was in the range of 108 to 111 °C. Next, `CN(C(=O)C(F)(F)F)C1(C)CN(c2cc3c(cc2F)c(=O)c(C(=O)O)cn3C2CC2)C1`: 210 to 215 °C; `CCCCCCCCCCCCCCCCCCOc1ccc(OCc2ccccc2)c(C(=O)O)c1`: 80 to 81 °C. In the case of `Cc1ccc(NC(=S)NCc2ccc3c(c2)CN(C2CCC(=O)NC2=O)C3=O)cc1C(F)(F)F` (configuration not stated) it was 238 to 240 °C; in that of `CCCCc1nn(-c2ccc(C(F)(F)F)cn2)cc1CCC(=O)OCC`, 63 to 64 °C; in that of `CCCCCCCCCCCCC(Oc1ccc(NS(=O)(=O)CCCC)cc1)C(=O)Nc1c(C)cc(C)c(-c2n[nH]c3cc(C(C)(C)C)nn23)c1C` (configuration not stated), 117 to 120 °C. In turn, `CCCCC(=O)Nc1c(C)c(C)c2c(c1C)C(c1ccc(C(C)C)cc1)CO2` (configuration not stated) showed a melting point of 128 to 129 °C. The compound `COc1c(C)cc2c(c1C)C(c1ccc(C(C)C)cc1)C(C)(C)O2` (configuration not stated) registered a melting point of 121 to 123 °C. As to `COc1cc(N)c(Cl)cc1C(=O)NCC1CCN(CCCCC(=O)c2ccccc2)CC1`, the melting point was in the range of 100 to 102 °C. `CC(=NNC(=S)N1CC2CCC(CC2)C1)c1ccccn1` displayed a melting point of 156 °C.

`CCn1cc(-c2sc(NC(=O)c3ccncc3)nc2-c2ccco2)ccc1=O` yielded a melting point of 285 to 289 °C.

With `COC(=O)c1cccc2nnsc12`, the melting point lay within 130 to 133 °C. In turn, `CC1(C)CC2(CC(C)(C)N1c1nc(Cl)nc(Cl)n1)OCCO2` showed a melting point of 169 to 172 °C. In the case of `CCCN(Cc1ccc(NCCN(CC)CC)c2c(=O)c3ccccc3sc12)S(C)(=O)=O` it was 142 to 143 °C. For `CC(C)N(C)C(=O)NS(=O)(=O)c1cc(-n2c(=O)cc(C(F)(F)F)n(C)c2=O)c(F)cc1Cl`, the melting point came out at 145 °C. The compound `CCOC(=O)N[C@@H]1CCc2c(ccc(OCc3ccccc3)c2N(C)Cc2ccccc2)[C@H]1O` (relative stereo) returned a melting point of 119 to 120 °C. Take `OCCN1CCN(C2=Nc3ccccc3Oc3cscc32)CC1`: the melting point fell in the range of 187 to 192 °C.

The compound `CC(=O)NC[C@H]1CN(c2ccc(-c3nc(Cn4cccn4)cs3)c(F)c2)C(=O)O1` displayed a melting point of 178 to 180 °C. `N=C(NO)c1ccc(-c2cccc(-c3cn4cc(C(=N)NO)ccc4n3)c2)cc1`: the melting point is 252 to 254 °C.

As for `O=C(O)c1ccc2c(c1)CN(C(=O)OCc1ccccc1)C2`, the melting point is 197 to 199 °C.

Turning to `Nc1ccccc1Sc1ccc([N+](=O)[O-])cc1[N+](=O)[O-]`, the melting point lay in the range of 151 to 152 °C. Next, `COc1ccc(S(=O)(=O)Nc2ccccc2C(F)(F)F)cc1`: 92 to 93 °C; `CCNC(=O)C(I)=C(Br)I`: 154 to 155 °C; `Nc1cc(Cl)cc(Cl)c1C(=O)NCc1cccc(Cl)c1`: 167 to 171 °C. On to `CNC(=S)NNc1ccnc2c(NC(=O)c3c(Cl)cccc3Cl)cccc12`, for which the melting point was greater than 258 °C. In the case of `CN(C)CCOCC1=Nc2cc(Cl)ccc2S(=O)(=O)N1`, the melting point was 219 to 221 °C. As to `O=C1c2ccccc2C2(O)Oc3c(ccc4c3CCCC4)C12O` (configuration not stated), the melting point lay within 252 to 254 °C. In the case of `CS(=O)(=O)Nc1cc2occ(N)c(=O)c2cc1Oc1ccccc1` it was 162 to 163 °C. Next, `CCCCCCn1cnc2cnc3ccccc3c21`: 75 to 77 °C; `O=C(CCCCN1CCCCC1)c1ccc2c(c1)Sc1cc(C(=O)CCCCN3CCCCC3)ccc1O2`: 128 to 130 °C.

`O=[N+]([O-])c1cnn2c(-c3cccs3)ccnc12` showed a melting point of 235 to 237 °C.
